# From patent US20210196720A1 (UROVANT SCIENCES GMBH, priority 2018, published 2021)
# Where two headings read alike, the source gives them in different places.
# How the values were obtained:
# [1] = Phase 2b OAB study, cardiovascular safety (HR, SBP, DBP, orthostatic AEs); format: in vivo, human
# Excerpt: None led to discontinuation. The overall incidence of orthostatic symptoms was low.
# Small differences in the percent of subjects exceeding categorical heart rate and blood pressure thresholds for vibegron were similar to those in the tolterodine arm.
# [2] = Effect of food on oral absorption; format: in vivo, human; details: for Cmax / Tmax / AUC(0-t) / AUC(0-inf): human, plasma, oral; for AUC(0-t): read-out: AUC0-24
# [3] = Phase 2b OAB study, trough concentrations; format: in vivo, human; details: OAB patients
# [4] = molecular target: β3-AR (Homo sapiens, UniProt P13945); assay: Adenylyl cyclase functional assay in CHO cells stably expressing human β3-AR; format: cell-based; parameters: expressed in transfected cells
# Chain of β3-AR (P13945 whole entry): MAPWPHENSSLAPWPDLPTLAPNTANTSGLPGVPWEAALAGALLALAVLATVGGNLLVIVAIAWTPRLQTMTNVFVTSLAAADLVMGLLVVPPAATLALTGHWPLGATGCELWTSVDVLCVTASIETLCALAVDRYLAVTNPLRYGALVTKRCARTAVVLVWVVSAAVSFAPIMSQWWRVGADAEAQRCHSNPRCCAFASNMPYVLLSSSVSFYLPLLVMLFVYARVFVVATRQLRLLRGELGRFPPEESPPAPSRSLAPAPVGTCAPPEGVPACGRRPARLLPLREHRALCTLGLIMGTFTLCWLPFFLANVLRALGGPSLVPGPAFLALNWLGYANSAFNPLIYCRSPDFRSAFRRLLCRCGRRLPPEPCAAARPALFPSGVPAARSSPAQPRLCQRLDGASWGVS
# Experimental: The degree of activation relative to a proven full agonist (isoproterenol) was measured along with the compound EC50.
# [5] = Maximum MA4 heart rate, multiple-dose Phase 1 study, day 14; format: in vivo, human
# Experimental: More intensive assessments of heart rate and blood pressure were performed in healthy volunteers in several Phase 1 studies. […] Doses ranged from 25 to 400 mg once daily for 7 to 28 days depending on the cohort. Least squares mean and 90% confidence intervals of maximum change from baseline in moving average of heart rate over 4 hours postdose (MA4 HR) are presented in Table 14.
# [6] = molecular target: T1, β1-AR (Homo sapiens, UniProt P08588); assay: Competition binding assay, recombinant β1-AR
# T1 construct: expressed in transfected cells; membranes prepared from them
# T1 sequence (P08588 whole entry): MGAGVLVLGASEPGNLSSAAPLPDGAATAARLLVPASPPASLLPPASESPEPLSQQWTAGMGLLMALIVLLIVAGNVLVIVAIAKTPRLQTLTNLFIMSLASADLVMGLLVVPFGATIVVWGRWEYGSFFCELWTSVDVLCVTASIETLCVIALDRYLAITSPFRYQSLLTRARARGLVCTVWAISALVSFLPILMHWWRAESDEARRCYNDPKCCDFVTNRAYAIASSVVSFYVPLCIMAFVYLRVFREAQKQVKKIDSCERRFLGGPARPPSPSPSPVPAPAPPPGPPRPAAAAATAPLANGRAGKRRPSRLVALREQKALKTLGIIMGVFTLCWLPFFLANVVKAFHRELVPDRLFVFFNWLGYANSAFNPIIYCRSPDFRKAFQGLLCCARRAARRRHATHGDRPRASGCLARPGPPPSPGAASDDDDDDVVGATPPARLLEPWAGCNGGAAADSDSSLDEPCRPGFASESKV
# [7] = Aqueous vs non-aqueous tablet bioequivalence, 50 mg; format: in vivo, human
# Excerpt: An open-label, single-dose, randomized, two-period, two-treatment, two-sequence, crossover Phase 1 study evaluated the relative bioequivalence of two types of tablets with slightly different composition: aqueous tablet (test) and non-aqueous tablet (reference).
# [8] = Phase 1 safety data; format: in vivo; details: Phase 1, single 2-600 mg, multiple 25-400 mg
# Excerpt: Safety data from 16 Phase 1 studies, which include 15 completed Phase 1 studies and 1 study that was terminated early (this study was terminated for reasons unrelated to efficacy or safety) was collected.
# [9] = human, in vivo
# Excerpt: The accumulation potential of circulating metabolites in plasma was not estimated due to insufficient data from later time points to enable estimation of half-life.
# [10] = 50 mg, high-fat meal, non-Japanese young males
# [11] = 50 mg, standard Japanese breakfast, Japanese young males
# [12] = 150 mg multiple dose, middle-aged and elderly females, Day 1
# [13] = female, 150 mg, 150 mg multiple dose day 14, middle-aged females, fed
# [14] = male, 50 mg, single 50 mg, Japanese young males, fed
# [15] = male, 50 mg, single 50 mg, non-Japanese young males, fed
structure (smiles),measurement,setting,value
"O=C(Nc1ccc(C[C@@H]2CC[C@H]([C@H](O)c3ccccc3)N2)cc1)[C@@H]1CCc2nccc(=O)n21 [Vibegron, (6S)-N-[4-[[(2S,5R)-5-[(R)-hydroxy(phenyl)methyl]pyrrolidin-2-yl]methyl]phenyl]-4-oxo-7,8-dihydro-6H-pyrrolo[1,2-a]pyrimidine-6-carboxamide]","DBP change from baseline, mean (95% CI), week 1",[1]; 50 mg,"−0.70 (−2.07, 0.67) mm Hg"
same,"HR change from baseline, mean (95% CI) maximum, week 1 to 8",[1]; 50 mg,"5.49 (4.28, 6.69) bpm"
same,"HR change from baseline, mean (95% CI), week 1",[1]; 50 mg,"0.29 (−0.88, 1.46) bpm"
same,"SBP change from baseline, mean (95% CI) maximum, week 1 to 8",[1]; 50 mg,"7.01 (5.31, 8.70) mm Hg"
same,"SBP change from baseline, mean (95% CI), week 1",[1]; 50 mg,"−0.79 (−2.65, 1.08) mm Hg"
same,"SBP and DBP change, difference from placebo","[1]; 50 mg and 100 mg, week 1 and maximum over 8 weeks",< 1 mm Hg
same,"DBP change from baseline, mean (95% CI) max, week 1 to 8",[1]; 100 mg,"4.80 (3.88, 5.72) mm Hg"
same,"DBP change from baseline, mean (95% CI), week 1",[1]; 100 mg,"−0.69 (−1.72, 0.34) mm Hg"
same,"HR change from baseline, mean (95% CI) maximum, week 1 to 8",[1]; 100 mg,"6.12 (5.10, 7.15) bpm"
same,"HR change from baseline, mean (95% CI), week 1",[1]; 100 mg,"0.35 (−0.69, 1.38) bpm"
same,"SBP change from baseline, mean (95% CI) maximum, week 1 to 8",[1]; 100 mg,"6.51 (5.09, 7.93) mm Hg"
same,"SBP change from baseline, mean (95% CI), week 1",[1]; 100 mg,"−0.77 (−2.22, 0.68) mm Hg"
same,subjects with orthostatic related AEs,[1]; 100 mg,1.1%
same,"HR mean maximum change over 8 weeks, difference from placebo",[1]; in vivo,< 2 bpm
same,"AUC0-inf reduction, fed vs fasted",[2]; [10],46%
same,"Cmax reduction, fed vs fasted",[2]; [10],67%
same,"delay in Tmax, fed vs fasted",[2]; [10],~1 h
same,"AUC0-inf reduction, fed vs fasted",[2]; [11],37%
same,"Cmax reduction, fed vs fasted",[2]; [11],52%
same,Ctrough,"[2]; 150 mg multiple dose day 14, middle-aged females, fed",65.3 ± 7.87 ng/mL
same,AUC0-24 reduction with food vs fasted,"[2]; 150 mg multiple dose, females, Day 14",~20%
same,AUC0-24 with food compared to fasted,[2]; [12],~42%
same,Cmax with food compared to fasted,[2]; [12],59%
same,Cmax,[2]; [13],185 ± 32.3 ng/mL
same,Tmax,[2]; [13],6 h
same,AUC(0-t),[2]; [13],2540 ± 334 ng·h/mL
same,AUC(0-inf),[2]; [14],605 ± 222 ng·h/mL
same,Cmax,[2]; [14],36.2 ± 33.3 ng/mL
same,AUC(0-t),[2]; [14],226 ± 112 ng·h/mL
same,AUC(0-inf),[2]; [15],316 ± 127 ng·h/mL
same,Cmax,[2]; [15],7.6 ± 2.27 ng/mL
same,Tmax,[2]; [15],3 h
same,AUC(0-t),[2]; [15],90.7 ± 22.9 ng·h/mL
same,mean (±SD) Ctrough,[3]; 50 mg QD,27.4 (±18.3) ng/mL
same,mean (±SD) Ctrough,[3]; 100 mg QD,73.6 (±65.5) ng/mL
same,EC50,[4],1.1 nM
same,EC50,[4]; 40% human serum,1.7 nM
same,Maximum MA4 HR (LS mean),[5]; 25 mg,1.47 bpm
same,"Maximum MA4 HR, difference from placebo",[5]; 25 mg,−1.60 bpm
same,Maximum MA4 HR (LS mean),[5]; 50 mg,1.50 bpm
same,"Maximum MA4 HR, difference from placebo",[5]; 50 mg,−1.57 bpm
same,Maximum MA4 HR (LS mean),[5]; 100 mg,3.28 bpm
same,Maximum MA4 HR (LS mean),[5]; 150 mg,3.17 bpm
same,"Maximum MA4 HR, difference from placebo",[5]; 150 mg,0.10 bpm
same,Maximum MA4 HR (LS mean),[5]; 200 mg,5.67 bpm
same,"Maximum MA4 HR, difference from placebo",[5]; 200 mg,2.60 bpm
same,Maximum MA4 HR (LS mean),[5]; 300 mg,9.06 bpm
same,"Maximum MA4 HR, difference from placebo",[5]; 300 mg,5.98 bpm
same,Maximum MA4 HR (LS mean),[5]; 400 mg,10.33 bpm
same,"Maximum MA4 HR, difference from placebo",[5]; 400 mg,7.26 bpm
same,binding to β1-AR,[6],does not bind
same,AUC0-inf GMR test/reference,[7]; 50 mg,100.2%
same,Cmax GMR test/reference,[7]; 50 mg,107.7%
same,AUC(0-inf),"[7]; 50 mg test, aqueous tablet (PMFII)",671 ng·h/mL
same,Cmax,"[7]; human, plasma, po, 50 mg, 50 mg reference, non-aqueous tablet (PMF1)",38 ng/mL
same,Cmax,"[7]; human, plasma, po, 50 mg, 50 mg test, aqueous tablet (PMFII)",41 ng/mL
same,AUC(0-inf),"[7]; human, plasma, po, 50 mg, read-out: AUC0-inf",671 ng·h/mL
same,tolerability,[8],generally well tolerated
same,dose recovered in feces,[9],approximately 59%
same,dose recovered in urine,[9],~20%
same,total recovery of radioactivity in excreta,[9],79%
same,share of plasma radioactivity,[9]; 2 hr,~78%
same,share of plasma radioactivity,[9]; 4 hr,~73%
